Earlier results, collected in publication PMC5698879 (Inorganic Chemistry, 2017).
Where two headings read alike, the source gives them in different places.

Details: [Cu^2+]tot = [chelator]tot = 50 μM

## O=C(O)CN(CCN(CC(=O)O)CC(=O)O)CCN(CC(=O)O)CC(=O)O [DTPA, diethylenetriaminepentacetic acid]
pH 6.6
  Calculated pCu (−log [Cu]free): 9.7
pH 7.4
  Calculated pCu (−log [Cu]free): 10.7
